Experimental data published in US6649654B1, “Methods for identifying and using IKK inhibitors” (The Regents of the University of California, priority 1999, dated 2003).

Tests used:
[1] = test system: wild-type IKKβ; test: 2XNFκB-LUC reporter in HeLa cells with NIK and wild-type IKKβ; assay type: cell-based; settings: luciferase at 24 hours, FIG. 6E
Experimental: Recombinant IKKβ(C179A) was also resistant to concentrations of 15dPGJ2 that were inhibitory to wild-type IKKβ (as shown in FIG. 6D), and also to PGA1. An NF-κB dependent transcriptional reporter (2XNFκB-LUC) was preincubated with expression vector encoding either wild-type IKKβ or IKKβ(C179A). A NIK expression vector was included to ensure maximal IKK activation. […] FIG. 6E provides the results for HeLa cells transiently transfected with a 2×NF-κB-LUC reporter, a NIK expression vector and expression vectors for wild type IKKβ or IKKβ(C179A). At 3 hours post-transfection, cells were treated with 15dPGJ2 and at 24 hours, the luciferase activities were determined for duplicate samples. In each case, the maximal activity achieved in the absence of inhibitor was given an arbitrary value of 100% and the other values were calculated relative to this one.

[2] = target: p38 (Homo sapiens, UniProt Q16539); test: In vitro p38 kinase activity; assay type: biochemical; parameters: Endogenous IKK, HA-tagged IKKα, endogenous JNK1, and p38 activities were determined; endogenous in cells; settings: in vitro incubation with up to 60 μM
Sequence of p38 (Q16539 whole entry): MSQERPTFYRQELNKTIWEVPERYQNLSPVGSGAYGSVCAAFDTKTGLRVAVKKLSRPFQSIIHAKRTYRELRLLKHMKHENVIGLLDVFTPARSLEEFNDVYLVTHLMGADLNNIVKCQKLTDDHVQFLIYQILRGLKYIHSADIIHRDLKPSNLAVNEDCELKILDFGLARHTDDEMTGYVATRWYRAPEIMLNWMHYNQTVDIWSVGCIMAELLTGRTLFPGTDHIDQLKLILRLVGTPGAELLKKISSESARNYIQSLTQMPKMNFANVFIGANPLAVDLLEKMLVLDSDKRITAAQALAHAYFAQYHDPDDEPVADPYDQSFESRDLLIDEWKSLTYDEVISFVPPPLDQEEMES
Experimental: Cell lysates were incubated with anti-IKKα (Pharmingen), anti-HA (12CA5; Pharmingen), anti-JNK1 (333.8; Pharmingen), or anti-p38 (New England Biolabs) for 2 hours. Then, 15 μl protein A-Sepharose (Sigma) were added and the mixture was allowed to incubate for 1 hour. After extensive washing, kinase assays were performed as known in the art (See e.g., DiDonato et al., Nature 388:548-554 [1997]). Endogenous IKK, HA-tagged IKKα, endogenous JNK1, and p38 activities were determined with GST-1κBα(1-54), GST-c-Jun(1-79), and GST-ATF2 as substrates.
Endogenous IKK was immunoprecipitated from TNFα-stimulated HeLa cells and the kinase activity determined in the presence of different concentrations of PGA1 (the results of which are shown in FIG. 2B) or 15dPGJ2 (the results of which are shown in FIG. 2C).

[3] = target: T1, peroxisome proliferator-activated receptor-γ (PPAR-γ) (Homo sapiens, UniProt P37231); settings: Ricote et al.; Jiang et al.; cited from earlier work
T1 sequence (P37231 1-505): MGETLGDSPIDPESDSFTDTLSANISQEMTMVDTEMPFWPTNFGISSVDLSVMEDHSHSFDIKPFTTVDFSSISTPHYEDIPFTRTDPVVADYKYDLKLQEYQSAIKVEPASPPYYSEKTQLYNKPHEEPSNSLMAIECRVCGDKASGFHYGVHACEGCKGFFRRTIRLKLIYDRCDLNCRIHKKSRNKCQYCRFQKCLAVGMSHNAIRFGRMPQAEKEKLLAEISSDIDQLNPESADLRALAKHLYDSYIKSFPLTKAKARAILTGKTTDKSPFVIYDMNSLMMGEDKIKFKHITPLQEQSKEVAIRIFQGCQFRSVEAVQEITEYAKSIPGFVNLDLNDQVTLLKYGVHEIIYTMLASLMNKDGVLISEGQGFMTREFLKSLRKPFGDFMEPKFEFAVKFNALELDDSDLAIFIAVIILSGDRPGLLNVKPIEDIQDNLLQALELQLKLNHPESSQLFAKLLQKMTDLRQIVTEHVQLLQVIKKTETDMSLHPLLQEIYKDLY

[4] = target: T2, IKKβ(C179A) (Homo sapiens, UniProt O14920, C179A); test: IKKβ(C179A) coexpressed with NIK in HeLa cells, kinase activity; assay type: cell-based; settings: HeLa cells coexpressing NIK, treated 2 hours
T2 sequence (O14920 1-756 C179A): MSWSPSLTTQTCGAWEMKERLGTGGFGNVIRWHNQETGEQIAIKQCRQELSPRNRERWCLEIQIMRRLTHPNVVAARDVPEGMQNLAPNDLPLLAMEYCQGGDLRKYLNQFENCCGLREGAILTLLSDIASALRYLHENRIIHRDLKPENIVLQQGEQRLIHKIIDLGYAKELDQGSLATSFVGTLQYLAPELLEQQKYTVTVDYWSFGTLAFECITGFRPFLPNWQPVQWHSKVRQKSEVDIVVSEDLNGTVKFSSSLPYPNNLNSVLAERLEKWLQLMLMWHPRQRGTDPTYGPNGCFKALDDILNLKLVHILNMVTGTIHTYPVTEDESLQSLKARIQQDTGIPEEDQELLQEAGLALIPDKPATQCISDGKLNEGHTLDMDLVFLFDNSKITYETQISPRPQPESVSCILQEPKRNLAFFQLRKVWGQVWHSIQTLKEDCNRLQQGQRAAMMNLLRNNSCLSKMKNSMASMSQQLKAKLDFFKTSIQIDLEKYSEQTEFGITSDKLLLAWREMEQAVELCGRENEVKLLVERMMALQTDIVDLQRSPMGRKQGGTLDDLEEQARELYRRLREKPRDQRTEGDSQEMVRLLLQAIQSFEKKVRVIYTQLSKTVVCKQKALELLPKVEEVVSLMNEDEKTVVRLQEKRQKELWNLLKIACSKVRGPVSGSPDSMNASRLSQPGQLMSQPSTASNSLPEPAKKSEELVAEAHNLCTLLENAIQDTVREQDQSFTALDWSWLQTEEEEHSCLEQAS
Experimental: In an experiment to determine whether this cysteine is critical for sensitivity to cyPG, cysteine was replaced with an alanine using site-directed mutagenesis. In these experiments, HeLa cells were transiently transfected with expression vectors for IKKβ(WT) or IKKβ(C179A) with or without a NIK expression vector. After 16 hours, NIK transfected cells were treated for 2 hours with 15dPGJ2. Kinase activity (KA) and expression (IB:HA) were subsequently determined. Thus, wild-type (WT) IKKβ and mutant IKKβ (i.e., IKKβ(C179A)) were coexpressed with NIK in HeLa cells and their sensitivity to 15dPGJ2 examined. While both constructs were equally responsive to NIK, resulting in similar levels of kinase activity, the IKKβ(C179A) mutant was resistant to inhibitor (See, FIG. 6C).

CCCCC/C=C/C=C1/C(=O)C=C[C@@H]1C/C=C\CCCC(=O)O [15dPGJ2, 15-deoxy-Δ^12-14-PGJ2]
sensitivity of NF-κB transcriptional activity through wild-type IKKβ [1]: highly sensitive
inhibition of p38 activity in vitro [2]: No significant inhibition
activation of PPAR-γ [3]: activate
sensitivity of IKKβ(C179A) kinase activity to inhibitor [4]: resistant
